Results from patent publication US6610502B1, “Compound 2-amino-3-[2-(α-mannopyranosyl)indol-3-yl]propionic acid, process for preparing the same, and method for inspecting function of living body with the novel compound” (Kyowa Medex Co., Ltd., priority 1997, dated 2003).

Experiments:
[1] = Quantitation of the compound in cerebrospinal fluid by high performance liquid chromatography (Example 4); type: in vivo, human
Description: Standard solution of 2-amino-3-[2-(α-mannopyranosyl)indole-3-yl]propionic acid obtained in Example 1 above was prepared. Next, 350 μl of the standard solution was added to 500 μl of 0.1N hydrochloric acid containing 1% vitamin C, mixed with 50 μl of 40 μM N-methyl serotonin as an internal standard then 100 μl of 60% perchloric acid, and centrifuged at 3000 rpm at 4° C. The supernatant was filtered through a 0.22 μm filter to obtain a filtrate.
The filtrate was subjected to high performance liquid chromatography under the following conditions:
Sera and cerebrospinal fluids from healthy persons and patients with central nervous disease were quantitated for the compound of the present invention. Both sera and cerebrospinal fluids were collected from 22 healthy persons, one patient with spinocerebellar ataxia and one patient with metastatic brain tumor, and quantitated for the compound of the present invention in the sera and the cerebrospinal fluids in the same manner as that of Example 2 except that sera or cerebrospinal fluids were used instead of the standard solution. […] The result of quantitation of the compound in cerebrospinal fluids is shown in FIG. 3 in which ●, □ and Δ show the healthy persons, the patient with spinocerebellar ataxia, and the patient with metastatic brain tumor, respectively. As shown in this figure, the level of the compound in cerebrospinal fluids from healthy persons was determined to be 130.4 ng/ml (SD 29.1). The level of the compound in cerebrospinal fluid from the patient with spinocerebellar ataxia was determined to be 399.4 ng/ml. The level of the compound in cerebrospinal fluid from the patient with metastatic brain tumor was determined to be 822.6 ng/ml.

[2] = Assay of excreted amount in urine: the present compound by enzyme immunoassay (Example 9); type: in vivo, human; conditions: healthy persons
Description: Enzyme immunoassay was performed using the antibody prepared in Example 6. First, 50 μl of 2-amino-3-[2-(α-D-mannopyranosyl)indole-3-yl]propionic acid-BSA conjugate solution (20 μg/ml 0.1M carbonate buffer, pH9.5) was dispensed into a 96-well microtiter plate (NUNC. Corp.) and left to stand at 4° C. overnight. After washing the plate three times with PBS, 250 μl of 1% BSA/PBS solution was dispensed into the plate and left to stand at room temperature for 1 hour. Then, the plate was washed three times with PBS to be used as a reaction plate. Next, 50 μl of a test sample diluted with 0.1M phosphate buffer (pH 7.4) supplemented with varied concentrations of 2-amino-3-[2-(α-D-mannopyranosyl)indole-3-yl]propionic acid/0.1%BSA or 0.1M phosphate buffer supplemented with 0.1% BSA (pH7.4) was dispensed into the reaction plate into which 50 μl of the monoclonal antibody prepared in Example 6 (10 ng/ml, 0.1M phosphate buffer solution supplemented with 0.1% BSA, pH7.4) was added while stirring. The mixture was allowed to react at room temperature for 3 hours. Then, after the reaction was completed, the plate was washed five times with PBS containing 0.05% Tween 20, and then 50 μl of POD labeled-anti-mouse immunoglobulins-rabbit IgG (DAKO) was added to the plate for reaction at room temperature for 1 hour. After the reaction, the plate was washed five times with PBS containing 0.05% Tween 20, added with 50 μl of MCDP/50 mM citrate buffer solution (pH5.0), and the mixture was allowed to react at room temperature for 30 minutes. Finally, 50 μl of a reaction stopper (ethyl diethyldithiocarbamate) was added to the plate, and absorbance was then determined at 660 nm by a microplate reader. The calibration curve is shown in FIG. 5 in which the concentration of 2-amino-3-[2-(α-D-mannopyranosyl)indole-3-yl]propionic acid was indicated as a concentration of single compound.
Healthy persons (male and female, from newborn to 90 year-old) were assayed for levels of 2-amino-3-[2-(α-mannopyranosyl)indole-3-yl]propionic acid in their urine as described in Example 7, to evaluate the usefulness of the method of the present invention for measurement of renal functions. Urine samples stored for 24 hours were pooled, their volumes were determined, and then partially stored at −80° C. until use. Upon use, the frozen urine samples were thawed and kept warm at 37° C. Subsequently, after sufficient stirring and mixing, the samples were centrifuged at 3000 rpm for 10 minutes to remove impurities. The resultant supernatants were used as samples. As a comparative example, creatinine levels in the same test samples were assayed.

range of levels in cerebrospinal fluids from 99% of subjects ([1]; healthy persons (n=22)): 72 to 188 ng/mL | level in cerebrospinal fluids ([1]; healthy persons (n=22), SD 29.1): 130.4 ng/mL | level in cerebrospinal fluid ([1]; one patient with metastatic brain tumor): 822.6 ng/mL | excreted amount in urine, average ([2]; female, age 0-10): 4111 µg/day | excreted amount in urine, average ([2]; female, age 0-90): 4507 µg/day | excreted amount in urine, average ([2]; female, age 10-30): 4520 µg/day | excreted amount in urine, average ([2]; female, age 30-50): 4824 µg/day | excreted amount in urine, average ([2]; female, age 50-70): 4412 µg/day | excreted amount in urine, average ([2]; female, age 70-90): 4666 µg/day | average excretion amount per day ([2]; male and female, all ages): 4.5 mg/day | excreted amount in urine, average ([2]; male, age 0-10): 4095 µg/day | excreted amount in urine, average ([2]; male, age 0-90): 4488 µg/day | excreted amount in urine, average ([2]; male, age 10-30): 4581 µg/day | excreted amount in urine, average ([2]; male, age 30-50): 4498 µg/day | excreted amount in urine, average ([2]; male, age 50-70): 4647 µg/day | excreted amount in urine, average ([2]; male, age 70-90): 4622 µg/day
SMILES: NC(Cc1c([C@H]2O[C@H](CO)[C@@H](O)[C@H](O)[C@@H]2O)[nH]c2ccccc12)C(=O)O (stereo partly drawn) [the present compound, 2-amino-3-[2-(α-mannopyranosyl)indole-3-yl]propionic acid]
level in cerebrospinal fluid ([1]; one patient with spinocerebellar ataxia): 399.4 ng/mL | levels in cerebrospinal fluids ([1]; patients with spinocerebellar ataxia or metastatic brain tumor): ≥ 400 ng/mL
